According to the supplement of paper PMC11451515:

Key:
Conditions in all cases: 48 h
P12-Ichikawa [1] = test: cell viability relative to DMSO control; higher = less cytotoxic
Procedure, shortened: (§1)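 Viability was expressed as a per-plate percentage of DMSO wells, with cell-free wells as background. Leukemia cells (NOMO1 or SEM at 500 cells/well, P12-Ichikawa at 1000 cells/well) were adapted for at least four passages in each medium and seeded in 1536-well plates (5 μl). Library compounds in DMSO were pin-dosed over an 11-point threefold series from 47 μM to 0.79 nM, and CellTiter-Glo One luminescence was read after 48 h at 37°C.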

SEM cells [2] = test: as above
Procedure, shortened: as §1

NOMO1 [3] = test: as above
Procedure, shortened: as §1

P12-Ichikawa [4] = test: AUC of viability dose-response curve (% viability x log10 dose units); higher = less sensitive
Procedure, shortened: (§2)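 In 1536-well plates, leukemia cells adapted to each medium (500 or 1000 cells/well) were exposed for 48 h at 37°C to library compounds in DMSO across 11 threefold doses, 47 μM down to 0.79 nM. Viability was read by CellTiter-Glo One luminescence and normalised per plate to DMSO and cell-free wells. A four-parameter log-logistic fit over log10 doses was integrated by trapezoidal rule. This yielded the area under the curve, with over-full-viability curves scaled and quality-control failures dropped.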

SEM cells [5] = test: as above
Procedure, shortened: as §2

NOMO1 [6] = test: as above
Procedure, shortened: as §2

CN(C)c1ccccc1CN1CCCN(Cc2ccccc2N(C)C)C1c1ccncc1
cell viability [%]
Conditions	NOMO1 [3]	P12-Ichikawa [1]	SEM cells [2]
HPLM + 10% dialyzed FBS, 0.000781 µM	93.7	84.7	81.3
HPLM + 10% dialyzed FBS, 0.00234 µM	103	94.7	91.2
HPLM + 10% dialyzed FBS, 0.00702 µM	91.6	101	86.8
HPLM + 10% dialyzed FBS, 0.0211 µM	29.8	11.9	23
HPLM + 10% dialyzed FBS, 0.0632 µM	113	102	95.2
HPLM + 10% dialyzed FBS, 0.19 µM	115	100	94.9
HPLM + 10% dialyzed FBS, 0.569 µM	108	108	92.5
HPLM + 10% dialyzed FBS, 1.71 µM	110	111	92.6
HPLM + 10% dialyzed FBS, 5.12 µM	99.9	108	112
HPLM + 10% dialyzed FBS, 15.4 µM	95.7	78.3	97.1
HPLM + 10% dialyzed FBS, 46.1 µM	65.7	94.1	83.3
RPMI 5 mM glucose + 10% FBS, 0.000781 µM	86.4	84	75.5
RPMI 5 mM glucose + 10% FBS, 0.00234 µM	82.7	90.7	85.3
RPMI 5 mM glucose + 10% FBS, 0.00702 µM	89.2	94	102
RPMI 5 mM glucose + 10% FBS, 0.0211 µM	18.6	11	15
RPMI 5 mM glucose + 10% FBS, 0.0632 µM	89.4	93.7	104
RPMI 5 mM glucose + 10% FBS, 0.19 µM	88	99	99.3
RPMI 5 mM glucose + 10% FBS, 0.569 µM	91.1	108	101
RPMI 5 mM glucose + 10% FBS, 1.71 µM	81.3	105	93.9
RPMI 5 mM glucose + 10% FBS, 5.12 µM	83.5	103	93.4
RPMI 5 mM glucose + 10% FBS, 15.4 µM	89.7	102	5.51
RPMI 5 mM glucose + 10% FBS, 46.1 µM	74.5	80.2	49.4
RPMI 5 mM glucose + 10% dialyzed FBS, 0.000781 µM	77.3	82.3	73.4
RPMI 5 mM glucose + 10% dialyzed FBS, 0.00234 µM	88.7	88.5	79.7
RPMI 5 mM glucose + 10% dialyzed FBS, 0.00702 µM	90.6	82.8	95.1
RPMI 5 mM glucose + 10% dialyzed FBS, 0.0211 µM	33.3	19.7	18.1
RPMI 5 mM glucose + 10% dialyzed FBS, 0.0632 µM	93	92.9	117
RPMI 5 mM glucose + 10% dialyzed FBS, 0.19 µM	99.6	91.7	111
RPMI 5 mM glucose + 10% dialyzed FBS, 0.569 µM	93.7	91.1	113
RPMI 5 mM glucose + 10% dialyzed FBS, 1.71 µM	97.7	93.4	98.3
RPMI 5 mM glucose + 10% dialyzed FBS, 5.12 µM	95.4	101	98.2
RPMI 5 mM glucose + 10% dialyzed FBS, 15.4 µM	95	100	87.8
RPMI 5 mM glucose + 10% dialyzed FBS, 46.1 µM	65	71.9	80

COC1=CC(=C2C(=O)N(COC/3=C/C(=O)N4\C=C/C=C(OCCN5CCCCC5)\C4=N3)[S+]([O-])(=O)C2=C1)C(C)C
cell viability [%]
Conditions	HPLM + 10% dialyzed FBS	RPMI 5 mM glucose + 10% FBS	RPMI 5 mM glucose + 10% dialyzed FBS
NOMO1 [3], 0.000781 µM	–	121	–
NOMO1 [3], 0.00234 µM	–	123	–
NOMO1 [3], 0.00702 µM	–	127	–
NOMO1 [3], 0.0211 µM	–	134	–
NOMO1 [3], 0.0632 µM	–	132	–
NOMO1 [3], 0.19 µM	–	127	–
NOMO1 [3], 0.569 µM	–	129	–
NOMO1 [3], 1.71 µM	–	140	–
NOMO1 [3], 5.12 µM	–	141	–
NOMO1 [3], 15.4 µM	–	140	–
NOMO1 [3], 46.1 µM	–	127	–
SEM cells [2], 0.000781 µM	116	119	105
SEM cells [2], 0.00234 µM	119	132	113
SEM cells [2], 0.00702 µM	128	125	120
SEM cells [2], 0.0211 µM	131	129	123
SEM cells [2], 0.0632 µM	103	134	114
SEM cells [2], 0.19 µM	135	134	125
SEM cells [2], 0.569 µM	108	106	82.9
SEM cells [2], 1.71 µM	83.4	71	63.5
SEM cells [2], 5.12 µM	148	137	113
SEM cells [2], 15.4 µM	128	143	114
SEM cells [2], 46.1 µM	114	102	97.5

AUC of viability dose-response curve
Conditions	NOMO1 [6]	P12-Ichikawa [4]	SEM cells [5]
HPLM + 10% dialyzed FBS	460	477	476
RPMI 5 mM glucose + 10% FBS	463	460	452
RPMI 5 mM glucose + 10% dialyzed FBS	471	470	436

CC(C(=O)O)c1ccc(-c2ccccc2)c(F)c1 (stereo not drawn)
AUC of viability dose-response curve
Conditions	NOMO1 [6]	P12-Ichikawa [4]	SEM cells [5]
HPLM + 10% dialyzed FBS	464	424	442
RPMI 5 mM glucose + 10% FBS	476	432	417
RPMI 5 mM glucose + 10% dialyzed FBS	459	424	447

N[C@@H](Cc1ccc(N(CCCl)CCCl)cc1)C(=O)O
cell viability [%]
Conditions	HPLM + 10% dialyzed FBS	RPMI 5 mM glucose + 10% FBS	RPMI 5 mM glucose + 10% dialyzed FBS
NOMO1 [3], 0.000781 µM	–	124	–
NOMO1 [3], 0.00234 µM	–	130	–
NOMO1 [3], 0.00702 µM	–	123	–
NOMO1 [3], 0.0211 µM	–	142	–
NOMO1 [3], 0.0632 µM	–	150	–
NOMO1 [3], 0.19 µM	–	140	–
NOMO1 [3], 0.569 µM	–	137	–
NOMO1 [3], 1.71 µM	–	137	–
NOMO1 [3], 5.12 µM	–	124	–
NOMO1 [3], 15.4 µM	–	44.8	–
NOMO1 [3], 46.1 µM	–	23.8	–
SEM cells [2], 0.000781 µM	118	–	114
SEM cells [2], 0.00234 µM	124	–	115
SEM cells [2], 0.00702 µM	125	–	120
SEM cells [2], 0.0211 µM	128	–	126
SEM cells [2], 0.0632 µM	126	–	134
SEM cells [2], 0.19 µM	116	–	123
SEM cells [2], 0.569 µM	119	–	107
SEM cells [2], 1.71 µM	103	–	90.7
SEM cells [2], 5.12 µM	48.6	–	34.4
SEM cells [2], 15.4 µM	18.3	–	13.7
SEM cells [2], 46.1 µM	11.8	–	5.98

AUC of viability dose-response curve
Conditions	NOMO1 [6]	P12-Ichikawa [4]	SEM cells [5]
HPLM + 10% dialyzed FBS	400	410	377
RPMI 5 mM glucose + 10% FBS	422	374	355
RPMI 5 mM glucose + 10% dialyzed FBS	415	387	362

Cc1ccccc1C(C(=O)NC1CCCC1)N(C(=O)Cn1cnc2ccccc21)c1cccc(F)c1 (stereo not drawn)
cell viability [%]
Conditions	HPLM + 10% dialyzed FBS	RPMI 5 mM glucose + 10% FBS	RPMI 5 mM glucose + 10% dialyzed FBS
NOMO1 [3], 0.000781 µM	–	118	–
NOMO1 [3], 0.00234 µM	–	114	–
NOMO1 [3], 0.00702 µM	–	127	–
NOMO1 [3], 0.0211 µM	–	105	–
NOMO1 [3], 0.0632 µM	–	125	–
NOMO1 [3], 0.19 µM	–	107	–
NOMO1 [3], 0.569 µM	–	113	–
NOMO1 [3], 1.71 µM	–	121	–
NOMO1 [3], 5.12 µM	–	108	–
NOMO1 [3], 15.4 µM	–	110	–
NOMO1 [3], 46.1 µM	–	99.8	–
SEM cells [2], 0.000781 µM	133	120	119
SEM cells [2], 0.00234 µM	114	126	107
SEM cells [2], 0.00702 µM	119	121	128
SEM cells [2], 0.0211 µM	113	128	125
SEM cells [2], 0.0632 µM	112	127	137
SEM cells [2], 0.19 µM	113	122	119
SEM cells [2], 0.569 µM	124	126	120
SEM cells [2], 1.71 µM	119	122	113
SEM cells [2], 5.12 µM	108	122	126
SEM cells [2], 15.4 µM	111	112	118
SEM cells [2], 46.1 µM	80.9	83	84.9

AUC of viability dose-response curve
Conditions	HPLM + 10% dialyzed FBS	RPMI 5 mM glucose + 10% FBS	RPMI 5 mM glucose + 10% dialyzed FBS
P12-Ichikawa [4]	446	439	446
SEM cells [5]	429	464	469
